In experiment [1] the target is hMRGX2 (CHO-K1 cells overexpressing MRGX2) (Homo sapiens (Human), UniProt Q96LB1). Nature of the experiment: In vitro inhibition (EC50) of intracellular calcium flux, FLIPR Tetra, substance P stimulation. It counts as cell-based. To be noted: stimulated with MRGX2 ligand substance P, FLIPR Calcium 5, read-out: hMRGX2 Cellular Potency (pEC50) (converted). The method in brief:
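CHO-K1 cells overexpressing human MRGX2, loaded with Calcium 5 dye for 30 min at 37 °C, then given compound (11-point, top 10 μM).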

The next experiment deals with human MRGX2 receptor (Homo sapiens (Human), UniProt Q96LB1). Nature of the experiment: In vitro radioligand binding assay (Kd). To be noted: membrane from SF9 cells overexpressing human MRGX2; 3H-labeled ligand; pH 7.4, room temperature, 60 minutes. As to the method:
In vitro Radioligand Binding Assay (Kd)
Equilibrium dissociation constants, Kd, for many of the compounds described in the Examples section (“test compounds”) are determined in the presence cellular membrane prepared from SF9 cell lines overexpressing the human MRGX2 receptor. The assay is carried out in a 96-well plate (Greiner V-Bottom #651201). […] The assay mixtures, which comprise MRGX2 receptor, radiolabeled ligand and test compound, are incubated at room temperature (˜22° C.) for 60 minutes to reach equilibrium. After incubation, the assay mixtures are collected on a filter mat (Filtermat A, Perkin Elmer) using a cell harvester (Harvester 96, TOMTEC). The filter mat is completely dried. A solid scintillant (Meltilex, Perkin Elmer) is added to each filter membrane and the level of radioactivity (“Signal”) from each well (assay mixture) is recorded using a scintillation counter (Trilux Microbeta, PerkinElmer). Kd is determined by curve-fitting the dose response data ([I], Signal) for each set of samples to the equation,
[formula] where [I] is the concentration of the test compound. The data are reported as pKd

hMRGX2 (CHO-K1 cells overexpressing MRGX2), sequence (Q96LB1 whole entry): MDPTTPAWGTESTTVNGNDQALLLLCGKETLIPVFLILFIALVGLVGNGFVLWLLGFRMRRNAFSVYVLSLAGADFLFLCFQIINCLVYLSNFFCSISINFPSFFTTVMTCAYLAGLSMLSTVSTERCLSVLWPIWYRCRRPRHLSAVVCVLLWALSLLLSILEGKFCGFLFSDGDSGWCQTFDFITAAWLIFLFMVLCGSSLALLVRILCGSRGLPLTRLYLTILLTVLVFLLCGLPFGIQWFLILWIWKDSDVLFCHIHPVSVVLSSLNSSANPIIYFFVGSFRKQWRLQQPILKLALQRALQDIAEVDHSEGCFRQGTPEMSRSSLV
human MRGX2 receptor, sequence (Q96LB1 whole entry): as above

In the case of `O=S1(=O)N=C(NCc2ncco2)Nc2c(-c3cccc(F)c3Cl)cccc21` [Example 28, 5-(2-chloro-3-fluorophenyl)-3-((oxazol-2-ylmethyl)amino)-4H-benzo[e][1,2,4]thiadiazine 1,1-dioxide], the EC50 in experiment [1] was 24.1 nM. The “hMRGX2 Binding Affinity (pKd)” value at human MRGX2 receptor stood at 7.03.
`O=S1(=O)N=C(NCc2ncccc2F)Nc2c(-c3cccc(F)c3Cl)cccc21` [Example 12, 5-(2-chloro-3-fluorophenyl)-3-(((3-fluoropyridin-2-yl)methyl)amino)-4H-benzo[e][1,2,4]thiadiazine 1,1-dioxide]: the EC50 in experiment [1] was 13.6 nM. The “hMRGX2 Binding Affinity (pKd)” value at human MRGX2 receptor is given as 7.45.
On to `Cc1c(-c2cccc3c2NC(Nc2ccc(C(C)C)cc2)=NS3(=O)=O)cnn1C` [Example 114, 5-(1,5-dimethyl-1H-pyrazol-4-yl)-3-((4-isopropylphenyl)amino)-4H-benzo[e][1,2,4]thiadiazine 1,1-dioxide], for which the EC50 in experiment [1] is 262 nM. For the same compound, on human MRGX2 receptor, the “hMRGX2 Binding Affinity (pKd)” value is given as 6.095.
Take `Cc1nn(C)cc1-c1cccc2c1NC(Nc1ccc(C(C)C)cc1)=NS2(=O)=O` [Example 103, 5-(1,3-dimethyl-1H-pyrazol-4-yl)-3-((4-isopropylphenyl)amino)-4H-benzo[e][1,2,4]thiadiaazne 1,1-dioxide]: in experiment [1], the EC50 is 51.2 nM. Moreover, on human MRGX2 receptor, the “hMRGX2 Binding Affinity (pKd)” value amounted to 6.755.
Taken in the same sequence, the figures for `O=S1(=O)N=C(NCC2CC2)Nc2c(-c3cccc(F)c3Cl)cc(F)cc21` [Example 7, 5-(2-chloro-3-fluorophenyl)-3-((cyclopropylmethyl)amino)-7-fluoro-4H-benzo[e][1,2,4]thiadiazine 1,1-dioxide] were 23.3 nM and 7.27.
Taken in the same sequence, the figures for `CNC1=NS(=O)(=O)c2cccc(-c3cccc(F)c3C#N)c2N1` [Example 89, 2-fluoro-6-(3-(methylamino)-1,1-dioxido-4H-benzo[e][1,2,4]thiadiazin-5-yl)benzonitrile] were 69.2 nM and 6.35.
The matching figures for `COCCNC1=NS(=O)(=O)c2cccc(-c3ccccc3Cl)c2N1` [Example 35, 5-(2-chlorophenyl)-3-((2-methoxyethyl)amino)-4H-benzo[e][1,2,4]thiadiazine 1,1-dioxide]: 92 nM and 4.7.
Regarding `CCc1ccc(NC2=NS(=O)(=O)c3cccc(-c4cnn(C)c4)c3N2)cc1` [Example 136, 3-((4-ethylphenyl)amino)-5-(1-methyl-1H-pyrazol-4-yl)-4H-benzo[e][1,2,4]thiadiazine 1,1-dioxide], in experiment [1], the EC50 was 119 nM. In addition, the “hMRGX2 Binding Affinity (pKd)” value at human MRGX2 receptor is recorded as 6.535.
Taken in the same sequence, the figures for `COCc1cccc2c1NC(Nc1ccc(C(C)C)cc1)=NS2(=O)=O` [Example 169, 3-((4-isopropylphenyl)amino)-5-(methoxymethyl)-4H-benzo[e][1,2,4]thiadiazine 1,1-dioxide] were 474 nM and 5.95.
The matching figures for `CNC1=NS(=O)(=O)c2cccc(-c3cccc(F)c3Cl)c2N1` [Example 1, 5-(2-chloro-3-fluorophenyl)-3-(methylamino)-4H-benzo[e][1,2,4]thiadiazine 1,1-dioxide]: 69.3 nM and 6.724.
With `CC(C)c1ccc(NC2=NS(=O)(=O)c3cccc(-c4cnn(C)c4)c3N2)cc1` [Example 107, 3-((4-isopropylphenyl)amino)-5-(1-methyl-1H-pyrazol-4-yl)-4H-benzo[e][1,2,4]thiadiazine 1,1-dioxide], in experiment [1], the EC50 was 132 nM. In addition, the “hMRGX2 Binding Affinity (pKd)” value on human MRGX2 receptor is given as 6.52.

(Values after patent US12247015B2, “3-amino-4H-benzo[e][1,2,4]thiadiazine 1,1-dioxide derivatives as inhibitors of MRGX2” (Solent Therapeutics, LLC, priority 2019, dated 2025).)
